The source of these data is patent publication US20150080579A1, “Salts and Polymorphs of Dexrabeprazole” (Cipla Limited, priority 2010, published 2015).

Series [1] in a line: Storage stability: water content by KF Autotitrator. Format: physicochemical. The protocol: Water content was measured using about 0.2 g sample in methanol by KF Autotitrator.
Series [2] is described as follows: Storage stability: impurity profile.
[3] abbreviates: At 6 months, storage at 2° C. to 8° C.
Setting [4] is: Initial, stability study at 2° C. to 8° C.

In the case of dexrabeprazole magnesium hydrate, the figures for the Water content in series [1] (setting [3]) and in series [1] (setting [4]) were 10.46 % w/w and 10.27 % w/w, respectively. For the same compound, in series [2] (2° C. to 8° C. for 6 months), the “Rise in impurities on storage (in words)” value is recorded as “does not show significant rise in impurities”. For the same compound, the “Impurity A” value in series [2] (setting [3]) and in series [2] (setting [4]) was 0.02% in each case. Also, the “Impurity B” value in series [2] (setting [3]) and in series [2] (setting [4]) was 0.07% each time. In addition, the “Impurity C” value in series [2] (setting [3]) and in series [2] (setting [4]) was 0.09% throughout.
As for `COCCCOc1ccnc(C[S@@+]([O-])c2nc3ccccc3[nH]2)c1C` [dexrabeprazole sodium], the “Water absorption on storage (in words)” value in series [1] (2° C. to 8° C. for 6 months) is on record as “absorbed more water than dexrabeprazole magnesium”. The compound further gave a Water content in series [1] (setting [3]) of 13.58 % w/w. The Water content in series [1] (setting [4]) turned out to be 6.84 % w/w. In series [2] (setting [3]), the “Impurity A” value came out at 0.06%, the “Impurity B” value was 1.25% and the “Impurity C” value was found to be 0.33%. Further, in series [2] (setting [4]), the “Impurity A” value is recorded as 0.02%, the “Impurity B” value worked out at 0.87% and the “Impurity C” value turned out to be 0.22%. Also, the “Stability on storage (in words)” value in series [2] (on storage) is given as “not stable on storage”.
